These results are taken from patent US20070009621A1, “Correcting systemic androgen levels using Eurycoma longifolia” (priority 2005, published 2007).

The assay concerns rat testicular cell homogenate. Briefly: Incubation of rat testicular homogenate with pregnenolone and extract, capillary gas chromatography of steroids. It is filed as biochemical. The following applies: gas capillary analysis. As for the experimental part:
To preliminary assess the activity of Eurycoma longifolia, an extract of it was prepared and incubated with rat testicular cell homogenate. After the incubation was completed, the samples were measured using capillary gas chromatography to measure the presence of various hormones. 500 g of the dried pulverized root was boiled exhaustively with 5 L of distilled water for 24 hours. The extract was concentrated to a 40% mass, allowed to cool to room temperature, filtered using a 4 micron filter, then centrifuged at 10,000 rpm for five minutes. Supernatant was collected and freeze-dried yielding yellow brown colored fine powder. Tris/sucrose buffer, PH 7.4 was used as homogenizing buffer and medium for suspending the testicular homogenate. This buffer, consisting of 0.25M sucrose, 0.05M Tris-HCL, 0.025M KCl and 0.005M MgCl2H2O was prepared fresh and kept cool at 4° C. Sprague Dawley albino male rats were sacrificed by stunning followed by cervical dislocation. Testes were removed quickly, pooled and homogenized in Tris/sucrose buffer (10% w/v) using homogenizer. Homogenate was then centrifuged at 1000×g (3000 rpm) for 20 minutes to remove the nuclei and cell debris. Post-nuclei suspension was used for incubation studies; a portion of the suspension was reserved for protein determination. 10 ml of the testes homogenate was first treated with 5 ml ethyl acetate before incubation process. […]

As for `CC(=O)[C@H]1CC[C@H]2[C@@H]3CC=C4C[C@@H](O)CC[C@]4(C)[C@H]3CC[C@]12C` [Prenenolone, Pregnenolone], the “An α” value (16-androstene steroid metabolite (pheromone)) worked out at 1.62. In addition, for the setting “16-androstene steroid metabolites (pheromones)”, the “An β Andien β” value was found to be 1.99.
